This is an account of results in patent US12110299B2, “Thiazole derivatives and pharmaceutically acceptable salts thereof” (YUNGJIN PHARM. CO., LTD., priority 2018, dated 2024).

The subject of one experiment is MDA-MB-468 cells. As to the kind of experiment: Anti-proliferative effect on MDA-MB-468 cells, IC50 (MTT). Format: cell-based. The settings on record: Homo sapiens, MDA-MB-468, 72 h.
The test system of another experiment is HepG2 cells. The experiment can be described thus: HepG2 cell viability assay (CCK-8). The experiment is classed as cell-based, human. The settings on record: Homo sapiens, HepG2, 72 h. The protocol: The ability to inhibit the proliferation of HepG2 cells, which are human hepatocellular carcinoma cells, was measured through the in vitro cell viability assay. Cells were cultured at 37° C. in a humidified condition in the presence of 5% CO2 using a culture medium of MEM (Welgene)+10% FBS (Gibco)+1% penicillin/streptomycin (Gibco). […] Cell viability was measured by CCK-8 method using tetrazolium salt, and the ability of the compounds according to the present invention to inhibit cancer cell proliferation was calculated.

Method for MDA-MB-468 cells: The compounds of the present invention were tested at different concentrations (from 1000 nM to 1 nM) to assess their ability for inhibiting the proliferation of MDAMB-468 cells. Cells were cultivated in RPMI 1640 (Welgene)+10% FBS (Gibco)+1% penicillin/streptomycin (Gibco) and cultured at 37° C. in a humidified chamber in the presence of 5% C02.
MDA-MB-468 cells cultured in 96-well cell culture plates were treated with the compounds of the present invention and incubated for 72 hours.

On to `CC(C(=O)Nc1ncc(C(F)(F)F)s1)c1cncc(-c2cnc(NC(=O)/C=C/CN3CCOCC3)cn2)c1` (stereo not drawn) [Example 74, (E)-4-morpholino-N-(5-(5-(1-oxo-1-((5-(trifluoromethyl)thiazol-2-yl)amino)propan-2-yl)pyridin-3-yl)pyrazin-2-yl)but-2-enamide], for which the IC50 in the experiment on MDA-MB-468 cells came to 65 nM.
As to `C[C@H](C(=O)Nc1ncc(C(F)(F)F)s1)c1cccc(-c2cnc(NC(=O)/C=C/CN(C)C)cn2)c1` [Example 81, (S,E)-4-(dimethylamino)-N-(5-(3-(1-oxo-1-((5-(trifluoromethyl)thiazol-2-yl)amino)propan-2-yl)phenyl)pyrazin-2-yl)but-2-enamide], the IC50 in the experiment on MDA-MB-468 cells turned out to be 39 nM; in the experiment with HepG2 cells, 11 nM.
Turning to `C=CC(=O)Nc1ccc(-c2cncc(C(C)C(=O)Nc3ncc(C(F)(F)F)s3)c2)cn1` (stereo not drawn) [Example 82, N-(5′-(1-oxo-1-((5-(trifluoromethyl)thiazol-2-yl)amino)propan-2-yl)-[3,3′-bipyridin]-6-yl)acrylamide], the IC50 turned out to be 32 nM in the experiment with MDA-MB-468 cells and 4 nM with HepG2 cells.
For `CC(C(=O)Nc1ncc(C(F)(F)F)s1)c1cncc(-c2cnc(NC(=O)/C=C/CN3CC4CC3CO4)cn2)c1` (stereo not drawn) [Example 83, (E)-4-(2-oxa-5-azabicyclo[2.2.1]heptan-5-yl)-N-(5-(5-(1-oxo-1-((5-(trifluoromethyl)thiazol-2-yl)amino)propan-2-yl)pyridin-3-yl)pyrazin-2-yl)but-2-enamide], in that order: 21 nM and 3 nM.
With `C=CC(=O)Nc1ncc(-c2cncc(C(C)C(=O)Nc3ncc(C(F)(F)F)s3)c2)cc1C#N` (stereo not drawn) [Example 88, N-(5-cyano-5′-(1-oxo-1-((5-(trifluoromethyl)thiazol-2-yl)amino)propan-2-yl)-[3,3′-bipyridin]-6-yl)acrylamide], the results for the IC50 in the experiment with MDA-MB-468 cells and in the experiment with HepG2 cells were 54 nM and 9 nM, respectively.
As for `C[C@H](C(=O)Nc1ncc(C(F)(F)F)s1)c1cccc(-c2cnc(NC(=O)/C=C/CN3CCOCC3)cn2)c1` [Example 92, (S,E)-4-morpholino-N-(5-(3-(1-oxo-1-((5-(trifluoromethyl)thiazol-2-yl)amino)propan-2-yl)phenyl)pyrazin-2-yl)but-2-enamide], the IC50 in the experiment on MDA-MB-468 cells came to 52 nM; with HepG2 cells, 74 nM.
On the same counts, the results for `C[C@H](C(=O)Nc1ncc(Cl)s1)c1cccc(-c2cnc(NC(=O)/C=C/CN(C)C)cn2)c1` [Example 93, (S,E)-N-(5-(3-(1-((5-chlorothiazol-2-yl)amino)-1-oxopropan-2-yl)phenyl)pyrazin-2-yl)-4-(dimethylamino)but-2-enamide] are 38 nM and 21 nM.
For `C[C@H](C(=O)Nc1ncc(Cl)s1)c1cccc(-c2cnc(NC(=O)/C=C/CN3CC4CC3CO4)cn2)c1` (stereo partly drawn) [Example 94, (E)-4-(2-oxa-5-azabicyclo[2.2.1]heptan-5-yl)-N-(5-(3-((S)-1-((5-chlorothiazol-2-yl)amino)-1-oxopropan-2-yl)phenyl)pyrazin-2-yl)but-2-enamide], the results for the IC50 with MDA-MB-468 cells and in the experiment with HepG2 cells were 59 nM and 25 nM, respectively.
As for `C[C@H](C(=O)Nc1ncc(C(F)(F)F)s1)c1cccc(-c2cnc(NC(=O)/C=C/CN3CC4CC3CO4)cn2)c1` (stereo partly drawn) [Example 96, (E)-4-(2-oxa-5-azabicyclo[2.2.1]heptan-5-yl)-N-(5-(3-((S)-1-oxo-1-((5-(trifluoromethyl)thiazol-2-yl)amino)propan-2-yl)phenyl)pyrazin-2-yl)but-2-enamide], the IC50 in the experiment with MDA-MB-468 cells was 68 nM; in the experiment on HepG2 cells it was 19 nM.
`C[C@H](C(=O)Nc1ncc(C(F)(F)F)s1)c1cccc(-c2cnc(NC(=O)/C=C/CN(C)C)c(F)c2)c1` [Example 99, (S,E)-4-(dimethylamino)-N-(3-fluoro-5-(3-(1-oxo-1-((5-(trifluoromethyl)thiazol-2-yl)amino)propan-2-yl)phenyl)pyridin-2-yl)but-2-enamide]: the values for the IC50 with MDA-MB-468 cells and in the experiment on HepG2 cells were 23 nM and 5 nM, respectively.
As to `COc1cc(-c2cccc([C@H](C)C(=O)Nc3ncc(C(F)(F)F)s3)c2)cnc1NC(=O)/C=C/CN(C)C` [Example 100, (S,E)-4-(dimethylamino)-N-(3-methoxy-5-(3-(1-oxo-1-((5-(trifluoromethyl)thiazol-2-yl)amino)propan-2-yl)phenyl)pyridin-2-yl)but-2-enamide], the results for the IC50 in the experiment with MDA-MB-468 cells and in the experiment on HepG2 cells were 56 nM and 8 nM, respectively.
For `C[C@H](C(=O)Nc1ncc(C(F)(F)F)s1)c1cccc(-c2cnc(NC(=O)/C=C/CN3CCCC3)cn2)c1` [Example 102, (S,E)-N-(5-(3-(1-oxo-1-((5-(trifluoromethyl)thiazol-2-yl)amino)propan-2-yl)phenyl)pyrazin-2-yl)-4-(pyrrolidin-1-yl)but-2-enamide], the IC50 turned out to be 57 nM in the experiment on MDA-MB-468 cells and 13 nM in the experiment with HepG2 cells.
Consider `C[C@H](C(=O)Nc1ncc(C(F)(F)F)s1)c1cccc(-c2cnc(NC(=O)/C=C/CN3CCC3)cn2)c1` [Example 103, (S,E)-4-(azetidin-1-yl)-N-(5-(3-(1-oxo-1-((5-(trifluoromethyl)thiazol-2-yl)amino)propan-2-yl)phenyl)pyrazin-2-yl)but-2-enamide], for which the IC50 in the experiment on MDA-MB-468 cells amounted to 68 nM; in the experiment on HepG2 cells, 14 nM.
Regarding `C[C@H](C(=O)Nc1ncc(C2CCC2)s1)c1cccc(-c2cnc(NC(=O)/C=C/CN(C)C)cn2)c1` [Example 104, (S,E)-N-(5-(3-(1-((5-cyclobutylthiazol-2-yl)amino)-1-oxopropan-2-yl)phenyl)pyrazin-2-yl)-4-(dimethylamino)but-2-enamide], the IC50 with MDA-MB-468 cells was 44 nM; in the experiment on HepG2 cells, 8 nM.
In the experiment on HepG2 cells, `CC(C(=O)Nc1ncc(C(F)(F)F)s1)c1cncc(-c2ccc(NC(=O)/C=C/CN(C)C)nc2)c1` (stereo not drawn) [Example 107, (E)-4-(dimethylamino)-N-(5′-(1-oxo-1-((5-(trifluoromethyl)thiazol-2-yl)amino)propan-2-yl)-[3,3′-bipyridin]-6-yl)but-2-enamide] gave an IC50 of 3.1 nM. That is a single-digit nanomolar value.
For `CC(C(=O)Nc1ncc(C(F)(F)F)s1)c1cncc(-c2cnc(NC(=O)/C=C/CN(C)C)c(C#N)c2)c1` (stereo not drawn) [Example 108, (E)-N-(5-cyano-5′-(1-oxo-1-((5-(trifluoromethyl)thiazol-2-yl)amino)propan-2-yl)-[3,3′-bipyridin]-6-yl)-4-(dimethylamino)but-2-enamide], the IC50 amounted to 31 nM with MDA-MB-468 cells and 4.6 nM in the experiment on HepG2 cells.
In the experiment on MDA-MB-468 cells, `COC[C@@H]1CCCN1C/C=C/C(=O)Nc1cnc(-c2cccc([C@H](C)C(=O)Nc3ncc(C(F)(F)F)s3)c2)cn1` [Example 118, (E)-4-((S)-2-(methoxymethyl)pyrrolidin-1-yl)-N-(5-(3-((S)-1-oxo-1-((5-(trifluoromethyl)thiazol-2-yl)amino)propan-2-yl)phenyl)pyrazin-2-yl)but-2-enamide] yielded an IC50 of 47 nM. This counts as double-digit nanomolar.
For the molecule `C[C@H](C(=O)Nc1ncc(C(F)(F)F)s1)c1cccc(-c2cnc(NC(=O)/C=C/CN3CCCCC3)cn2)c1` [Example 120, (S,E)-N-(5-(3-(1-oxo-1-((5-(trifluoromethyl)thiazol-2-yl)amino)propan-2-yl)phenyl)pyrazin-2-yl)-4-(piperidin-1-yl)but-2-enamide], it took 51 nM to reach half-maximal inhibition with MDA-MB-468 cells (IC50).
Turning to `C=CC(=O)Nc1ncc(-c2cccc([C@H](C)C(=O)Nc3ncc(C(F)(F)F)s3)c2)cc1C#N` [Example 124, (S)-N-(3-cyano-5-(3-(1-oxo-1-((5-(trifluoromethyl)thiazol-2-yl)amino)propan-2-yl)phenyl)pyridin-2-yl)acrylamide], in the experiment on MDA-MB-468 cells, the concentration for half-maximal inhibition (IC50) amounted to 40 nM.

As usually defined, the IC50 is the concentration that gives 50% inhibition. Read a high IC50 as weaker potency.
